Data as given in US12139487B2, “Compounds and uses thereof” (Foghorn Therapeutics Inc., priority 2022, dated 2024).

What was measured:
BRM = target: T1, BRM (Homo sapiens, UniProt P51531); assay: ATPase catalytic activity assay (ADP-Glo), BRM; type: biochemical; conditions: Table 10; for Ratio (BRG1 IC50 (μM) divided by BRM IC50 (μM)): ATPase assay, selectivity BRG1/BRM; for IC50: ATPase catalytic activity assay (ADP-Glo)
T1 construct: made in house; host or cells: High Five insect cells
In short: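 Reaction holds 30 nM BRM, 20 nM salmon sperm DNA and 400 μM ATP in 20 mM Tris pH 8, 20 mM MgCl2, 50 mM NaCl, 0.1% Tween-20, 1 mM DTT. Incubated 1 h at room temperature. ADP formed is detected by ADP-Glo luminescence.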

BRG-1 = target: T2, BRG-1 (Homo sapiens, UniProt P51532); assay: ATPase catalytic activity assay (ADP-Glo), BRG-1; type: biochemical; conditions: Table 10, read-out: BRG1 IC50
T2 construct: made in house; host or cells: High Five insect cells
T2 sequence (P51532 whole entry): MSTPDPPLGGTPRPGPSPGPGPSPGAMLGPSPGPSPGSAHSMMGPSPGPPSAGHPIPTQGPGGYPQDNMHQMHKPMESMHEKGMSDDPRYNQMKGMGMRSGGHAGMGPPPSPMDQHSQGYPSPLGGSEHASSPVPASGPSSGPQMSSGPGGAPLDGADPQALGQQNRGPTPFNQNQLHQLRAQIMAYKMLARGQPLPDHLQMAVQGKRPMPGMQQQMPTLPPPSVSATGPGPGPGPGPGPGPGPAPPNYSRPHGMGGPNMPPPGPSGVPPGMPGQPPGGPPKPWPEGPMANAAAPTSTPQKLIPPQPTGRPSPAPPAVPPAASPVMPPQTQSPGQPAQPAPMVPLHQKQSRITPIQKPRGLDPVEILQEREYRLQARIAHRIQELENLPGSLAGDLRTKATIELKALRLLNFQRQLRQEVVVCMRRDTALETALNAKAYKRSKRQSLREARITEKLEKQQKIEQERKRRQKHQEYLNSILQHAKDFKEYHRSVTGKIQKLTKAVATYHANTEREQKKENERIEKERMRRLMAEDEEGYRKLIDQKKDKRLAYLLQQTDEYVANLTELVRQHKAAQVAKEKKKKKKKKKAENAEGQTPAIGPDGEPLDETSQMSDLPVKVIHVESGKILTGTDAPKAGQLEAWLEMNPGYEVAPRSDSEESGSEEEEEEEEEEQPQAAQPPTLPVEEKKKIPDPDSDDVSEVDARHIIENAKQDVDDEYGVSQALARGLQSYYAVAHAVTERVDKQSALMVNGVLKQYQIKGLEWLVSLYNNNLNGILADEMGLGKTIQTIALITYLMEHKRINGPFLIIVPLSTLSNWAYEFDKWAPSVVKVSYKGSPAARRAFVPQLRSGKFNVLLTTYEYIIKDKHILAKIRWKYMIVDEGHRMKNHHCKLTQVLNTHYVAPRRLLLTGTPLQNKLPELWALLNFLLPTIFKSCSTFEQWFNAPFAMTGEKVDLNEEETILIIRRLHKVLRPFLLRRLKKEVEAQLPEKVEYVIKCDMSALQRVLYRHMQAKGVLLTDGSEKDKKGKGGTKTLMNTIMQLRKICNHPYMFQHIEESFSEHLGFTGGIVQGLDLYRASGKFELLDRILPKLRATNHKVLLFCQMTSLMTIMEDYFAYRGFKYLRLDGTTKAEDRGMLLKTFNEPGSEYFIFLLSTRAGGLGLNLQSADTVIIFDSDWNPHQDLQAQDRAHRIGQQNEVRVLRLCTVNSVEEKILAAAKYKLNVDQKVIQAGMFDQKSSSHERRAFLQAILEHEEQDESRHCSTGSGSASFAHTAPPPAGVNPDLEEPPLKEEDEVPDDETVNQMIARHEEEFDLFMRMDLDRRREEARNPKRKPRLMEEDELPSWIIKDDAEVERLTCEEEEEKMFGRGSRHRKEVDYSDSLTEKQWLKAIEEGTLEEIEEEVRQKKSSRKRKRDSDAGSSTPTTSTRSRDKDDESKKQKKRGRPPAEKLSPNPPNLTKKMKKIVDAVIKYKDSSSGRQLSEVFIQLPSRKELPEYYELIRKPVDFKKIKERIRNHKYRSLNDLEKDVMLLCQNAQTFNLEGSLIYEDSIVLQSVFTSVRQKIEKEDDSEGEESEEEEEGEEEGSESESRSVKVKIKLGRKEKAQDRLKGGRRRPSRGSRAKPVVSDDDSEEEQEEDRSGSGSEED
In short: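 BRG-1 ATPase activity was measured by ADP-Glo. Unconsumed ATP was depleted for 40 min at room temperature, then ADP was converted to ATP for 60 min and read as luminescence.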

[1] = system: uveal melanoma and hematologic cancer cell lines versus other tested cell lines; assay: Growth of uveal melanoma, hematological and other cancer cell lines with Compound A (Cell-titer glo, day 3 and day 7, GI50); type: cell-based; conditions: day 7
Protocol: Procedure: Uveal melanoma cell lines (92-1, MP41, MP38, MP46), prostate cancer cell lines (LNCAP), lung cancer cell lines (NCI-H1299), and immortalized embryonic kidney lines (HEK293T) were plated into 96 well plates with growth media (see Table 9). […] Cells were incubated at 37 degrees Celsius for 3 days. After three days of treatment, the media was removed from the cells and 30 microliters of TrypLE (Gibco) was added to cells for 10 minutes. Cells were detached from the plates and resuspended with the addition of 170 microliters of growth media. Cells from two DMSO-treated control wells were counted, and the initial number of cells plated at the start of the experiment, were re-plated into fresh-compound containing plates for an additional four days at 37 degrees Celsius. At day 7, cells were harvested as described above. On day 3 and day 7, relative cell growth was measured by the addition of Cell-titer glo (Promega) and luminescence was measured on an Envision plate reader (Perkin Elmer). […] At the time of cell splitting on days 3 and 7, cells were split into new 96 well plates, and fresh compound was added four hours after re-plating.

[2] = system: uveal melanoma cell lines 92-1 and MP41; assay: Comparison of Compound A with clinical PKC and MEK inhibitors in uveal melanoma cell lines (3 day growth); type: cell-based; conditions: vs LXS196 and Selumetinib
Protocol: Procedure: Uveal melanoma cell lines, 92-1 or MP41, were plated in 96 well plates in the presence of growth media (see […]). […] Cells were incubated at 37 degrees Celsius for 3 days. After three days of treatment, cell growth was measured with Cell-titer glow (Promega), and luminescence was read on an Envision plate reader (Perkin Elmer).

[3] = system: 92-1 uveal melanoma cells (subcutaneous tumors); assay: 92-1 uveal melanoma xenograft tumor growth in nude mice; type: in vivo; conditions: 3 weeks
Protocol: Procedure: Nude mice (Envigo) were engrafted subcutaneously in the axillary region with 5×10^6 92-1 uveal melanoma cells in 50% Matrigel. Tumors were grown to a mean of ˜200 mm^3, at which point mice were grouped and dosing was initiated. Mice were dosed once daily by oral gavage with vehicle (20% 2-Hydroxypropyl-β-Cyclodextrin) or increasing doses of Compound C. Tumor volumes and body weights were measured over the course of 3 weeks, and doses were adjusted by body weight to achieve the proper dose in terms of mg/kg. At this time, animals were sacrificed, and tumors were dissected and imaged.

[4] = system: parental MP41 and PKCi-resistant MP41 uveal melanoma cells; assay: 7-day growth inhibition assay in parental and PKC inhibitor-resistant MP41 cells; type: cell-based; conditions: FIG. 7A
Protocol: Procedure: MP41 uveal melanoma cells were made resistant to the PKC inhibitor (LXS196; MedChemExpress), by long-term culture in growth media (see Table 9) containing increasing concentrations of the compound, up to 1 micromolar. After 3 months, sensitivity of the parental MP41 cells and the PKC inhibitor (PKCi)-resistant cells to the PKC inhibitor (LXS196) or the BRG1/BRM ATPase inhibitor (Compound B) was tested in a 7-day growth inhibition assay as described above in Example 6.

T1 sequence (P51531 whole entry): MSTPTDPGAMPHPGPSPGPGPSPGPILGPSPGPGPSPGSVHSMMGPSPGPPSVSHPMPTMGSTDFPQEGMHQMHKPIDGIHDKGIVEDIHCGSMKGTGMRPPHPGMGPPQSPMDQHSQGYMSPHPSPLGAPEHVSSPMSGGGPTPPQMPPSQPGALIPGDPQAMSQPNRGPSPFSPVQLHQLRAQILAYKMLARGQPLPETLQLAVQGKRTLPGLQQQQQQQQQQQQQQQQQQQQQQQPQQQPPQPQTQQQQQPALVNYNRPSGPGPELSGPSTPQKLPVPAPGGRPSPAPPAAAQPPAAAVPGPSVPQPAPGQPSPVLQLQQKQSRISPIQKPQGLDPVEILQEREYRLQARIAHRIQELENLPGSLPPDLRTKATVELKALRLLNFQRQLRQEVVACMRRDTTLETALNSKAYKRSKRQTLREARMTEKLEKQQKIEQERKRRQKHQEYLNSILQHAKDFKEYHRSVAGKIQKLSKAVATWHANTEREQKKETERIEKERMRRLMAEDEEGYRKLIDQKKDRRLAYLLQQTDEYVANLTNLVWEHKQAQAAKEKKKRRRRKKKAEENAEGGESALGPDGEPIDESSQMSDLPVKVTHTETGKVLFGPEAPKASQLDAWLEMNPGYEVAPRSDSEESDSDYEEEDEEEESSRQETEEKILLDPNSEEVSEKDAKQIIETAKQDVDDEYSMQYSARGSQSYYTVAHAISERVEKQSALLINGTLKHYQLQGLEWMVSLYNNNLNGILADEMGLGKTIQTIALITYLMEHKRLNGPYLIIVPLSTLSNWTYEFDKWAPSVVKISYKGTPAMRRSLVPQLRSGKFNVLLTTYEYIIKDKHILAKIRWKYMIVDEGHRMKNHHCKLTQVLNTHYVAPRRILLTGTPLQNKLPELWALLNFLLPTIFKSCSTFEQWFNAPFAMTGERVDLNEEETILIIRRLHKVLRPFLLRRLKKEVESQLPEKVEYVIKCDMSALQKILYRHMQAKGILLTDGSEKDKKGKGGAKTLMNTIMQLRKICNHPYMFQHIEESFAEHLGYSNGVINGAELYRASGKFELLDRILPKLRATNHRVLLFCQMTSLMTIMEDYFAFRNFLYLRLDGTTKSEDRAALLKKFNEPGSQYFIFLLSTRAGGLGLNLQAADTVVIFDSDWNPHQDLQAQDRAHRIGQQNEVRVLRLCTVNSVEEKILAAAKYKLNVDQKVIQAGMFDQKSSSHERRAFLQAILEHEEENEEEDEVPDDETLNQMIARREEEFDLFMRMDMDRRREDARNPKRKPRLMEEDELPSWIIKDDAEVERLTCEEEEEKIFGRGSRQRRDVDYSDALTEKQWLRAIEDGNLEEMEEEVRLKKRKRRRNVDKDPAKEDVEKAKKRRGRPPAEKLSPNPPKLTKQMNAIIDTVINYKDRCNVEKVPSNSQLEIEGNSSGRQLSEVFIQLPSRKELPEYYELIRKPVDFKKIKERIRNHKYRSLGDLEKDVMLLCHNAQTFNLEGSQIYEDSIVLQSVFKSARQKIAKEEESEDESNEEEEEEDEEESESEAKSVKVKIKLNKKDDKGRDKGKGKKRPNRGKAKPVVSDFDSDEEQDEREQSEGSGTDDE

For `COc1nc(C(F)F)ccc1-c1ccc2cnc(CNC(=O)c3cc(Cl)c4c(c3)S(=O)(=O)[C@@H](F)CCO4)cc2n1` [Compound 306], the “Ratio (BRG1 IC50 (μM) divided by BRM IC50 (μM))” value (BRM) was 32.74, the IC50 (BRM) was 0.0103 µM and the IC50 (BRG-1) was 0.36 µM.

For `O=C(NCc1cc2nc(-c3cccc(OC(F)(F)F)n3)ccc2cn1)c1cc(F)c2c(c1)S(=O)(=O)[C@@H](F)COC2` [Compound 307], the “Ratio (BRG1 IC50 (μM) divided by BRM IC50 (μM))” value (BRM) was 20.42, the IC50 (BRM) was 0.0104 µM and the IC50 (BRG-1) was 0.161 µM.

`COc1nc([C@H](C)F)ccc1-c1ccc2cnc(CNC(=O)c3cc(Cl)c4c(c3)S(=O)(=O)[C@@H](F)CCO4)cc2n1` [Compound 308] was tested, and the “Ratio (BRG1 IC50 (μM) divided by BRM IC50 (μM))” value (BRM) was 28.69, the IC50 (BRM) was 0.0104 µM and the IC50 (BRG-1) was 0.329 µM.

With `O=C(NCc1cc2nc(N3CCOc4cc(C#CC5CC5)cnc43)ccc2cn1)c1cc(F)c2c(c1)S(=O)(=O)[C@@H](F)COC2` [Compound 309] the “Ratio (BRG1 IC50 (μM) divided by BRM IC50 (μM))” value (BRM) was 11.01, the IC50 (BRM) was 0.0105 µM and the IC50 (BRG-1) was 0.115 µM.

In the case of `CCOc1ccc(-c2ccc3cnc(CNC(=O)c4cc(F)c5c(c4)S(=O)(=O)[C@@H](F)CCO5)cc3n2)nc1[C@H]1CC1(F)F` [Compound 313], the “Ratio (BRG1 IC50 (μM) divided by BRM IC50 (μM))” value (BRM) is reported as 36.05, the IC50 (BRM) is reported as 0.013 µM and the IC50 (BRG-1) is reported as 0.554 µM.

In the case of `C#Cc1cc(C(=O)NCc2cc3nc(-c4cccc(N5C[C@@H](C)O[C@@H](C)C5)n4)ccc3cn2)cc2c1OCC[C@@H](F)S2(=O)=O` [Compound 315], the “Ratio (BRG1 IC50 (μM) divided by BRM IC50 (μM))” value (BRM) is reported as 43.60, the IC50 (BRM) is reported as 0.0249 µM and the IC50 (BRG-1) is reported as 1.08 µM.

`C[C@@H]1CN(c2cccc(-c3ccc4cnc(CNC(=O)c5cc(OC(F)F)c6c(c5)S(=O)(=O)[C@@H](F)CCO6)cc4n3)n2)C[C@H](C)O1` [Compound 316] was tested, and the “Ratio (BRG1 IC50 (μM) divided by BRM IC50 (μM))” value (BRM) was 17.77, the IC50 (BRM) was 0.0183 µM and the IC50 (BRG-1) was 0.325 µM.

For `C[C@@H]1CN(c2cccc(-c3ccc4cnc(CNC(=O)c5ccc6c(c5)S(=O)(=O)[C@@H](F)CCN6C)cc4n3)n2)C[C@H](C)O1` [Compound 318], the “Ratio (BRG1 IC50 (μM) divided by BRM IC50 (μM))” value (BRM) was 8.51, the IC50 (BRM) was 0.0123 µM and the IC50 (BRG-1) was 0.105 µM.

With `C[C@@H]1CN(c2cccc(-c3ccc4cnc(CNC(=O)c5ccc6c(c5)S(=O)(=O)[C@H](F)CCN6C)cc4n3)n2)C[C@H](C)O1` [Compound 319] the “Ratio (BRG1 IC50 (μM) divided by BRM IC50 (μM))” value (BRM) was 25.94, the IC50 (BRM) was 0.192 µM and the IC50 (BRG-1) was 4.99 µM.

For `COc1cccc(-c2ccc3cnc(CNC(=O)c4cc(Cl)c5c(c4)S(=O)(=O)[C@@H](F)CCO5)cc3n2)n1` [Compound 322], the “Ratio (BRG1 IC50 (μM) divided by BRM IC50 (μM))” value (BRM) was 30.39, the IC50 (BRM) was 0.0322 µM and the IC50 (BRG-1) was 1.18 µM.

In the case of `O=C(NCc1cc2nc(N3CCOc4cc(N5CC[C@H]5CF)cnc43)ccc2cn1)c1cc(Br)c2c(c1)S(=O)(=O)[C@@H](F)CCO2` [Compound 323], the “Ratio (BRG1 IC50 (μM) divided by BRM IC50 (μM))” value (BRM) is reported as 13.90, the IC50 (BRM) is reported as 0.0118 µM and the IC50 (BRG-1) is reported as 0.164 µM.

With `Cc1cc(C(=O)NCc2cc3nc(-c4ccc(OC(F)F)c(C5CC5)n4)ccc3cn2)cc2c1OCC[C@H](F)S2(=O)=O` [Compound 324] the “Ratio (BRG1 IC50 (μM) divided by BRM IC50 (μM))” value (BRM) was 22.15, the IC50 (BRM) was 0.0161 µM and the IC50 (BRG-1) was 0.357 µM.

For `C[C@@H]1CN(c2cccc(-c3ccc4cnc(CNC(=O)c5cc(F)c6c(c5)S(=O)(=O)[C@@H](F)CO6)cc4n3)n2)C[C@H](C)O1` [Compound 326], the “Ratio (BRG1 IC50 (μM) divided by BRM IC50 (μM))” value (BRM) was 28.75, the IC50 (BRM) was 0.122 µM and the IC50 (BRG-1) was 3.51 µM.

`O=C(NCc1cc2nc(-c3cccc(C4CC4)n3)ccc2cn1)c1cc(F)c2c(c1)S(=O)(=O)[C@@H](F)CCOC2` [Compound 327] showed an IC50 (BRM) of 0.0035 µM and an IC50 (BRG-1) of 0.0407 µM.

`COc1nc([C@@H](C)C(F)F)ccc1-c1ccc2cnc(CNC(=O)c3cc(F)c4c(c3)S(=O)(=O)[C@@H](F)CCO4)cc2n1` [Compound 328] was tested, and the “Ratio (BRG1 IC50 (μM) divided by BRM IC50 (μM))” value (BRM) was 29.97, the IC50 (BRM) was 0.0241 µM and the IC50 (BRG-1) was 0.723 µM.

In the case of `CSCC[C@H](NC(=O)c1ccc(N)cc1)C(=O)Nc1nc(-c2cccc(-c3ccncc3)c2)cs1` [Compound A], the “duration of growth inhibition” value [1] is reported as “maintained through day 7”, the “growth inhibition compared with clinical PKC and MEK inhibitors” value ([2]; 3 days, FIG. 2A, 2B) is reported as “comparable growth inhibition” and the “onset of inhibition compared with clinical PKC and MEK inhibitors” value [2] is reported as “faster onset of inhibition”.

For `C[C@@H]1CN(c2cccc(-c3csc(NC(=O)CNC(=O)c4ccn(C(C)(C)C)c4)n3)n2)C[C@H](C)O1` [Compound C, 1-(tert-butyl)-N-(2-((4-(6-(cis-2,6-dimethylmorpholino)pyridin-2-yl)thiazol-2-yl)amino)-2-oxoethyl)-1H-pyrrole-3-carboxamide], the “tumor response at the highest dose” value ([3]; 50 mg/kg, once daily oral gavage) was “tumor regression”, the “tolerability / body weight” value ([3]; all treatments, FIG. 8C) was “well tolerated with no body weight loss observed” and the tumor growth inhibition ([3]; once daily oral gavage, increasing doses, FIG. 8A, 8B) was “tumor growth inhibition in a dose-dependent manner”.

`CC1(N)CCN(c2cccnc2NC(=O)c2nc(-c3ncccc3C(F)(F)F)cnc2N)CC1` [LXS196] was tested, and the “growth of PKCi-resistant cells relative to parental MP41 cell line” value [4] was “could tolerate growth at higher concentrations of LXS196”.
